Measurements as given in publication PMC10850913 (Heliyon, 2024).
Like-named read-outs stand apart in the source and are kept apart here.

Columns and labels:
[1] = In vitro drug release (dialysis tube) and kinetic models; format: physicochemical; conditions: PBS pH 5.5, 37 °C
Description: We utilized a dialysis tube diffusion system to characterize the in vitro release of drugs from the formulations. This system provides a controlled environment to study the rate and extent of drug release from the formulations, reflecting their potential drug delivery behaviour. […] Tube was inserted into 50 mL of PBS (pH 5.5) with both ends tightened. In order to provide the sink conditions, PBS quantifying to 0.5 mL was added. Formulated medium was heated up to 37 ± 0.5 °C and stirred continuously at speed of 200 rpm. At predefined intervals, a 5 mL sample was taken, and an equal volume of new medium was introduced to keep the final volume, or sink condition, throughout experiment. All test samples were analyzed in triplicate manner and results are expressed as mean ± SD (n = 3).
To elucidate the kinetics and mechanisms governing drug release, we employed regression analysis to fit the experimental drug release data to various mathematical models. This analysis yielded coefficient constants that shed light on the order of release and the underlying mechanisms involved. (See Supportive Information for further details).

HCT116 cells [2] = assay: Cell cycle analysis (PI, flow cytometry); format: cell-based; conditions: HCT116, IC50 concentration, 24 h
Description: Following the incubation period, cells were harvested using trypsin and collected in a 1.5 ml tube. After a single wash with 500 μl of chilled PBS, approximately 1 x 10^6 cells were suspended in 100 μl of PBS. The cell suspension was gently vortexed to achieve a mono-dispersed cell suspension with minimal aggregation. Subsequently, the cells were fixed by transferring this suspension with a pipette into centrifuge tubes containing 900 μl of 70 % ethanol, placed on ice, and then incubated for a minimum of 2 h at 4 °C. The fixed cells could be stored in 70 % ethanol at 4 °C for several weeks.
After fixation, the cells were centrifuged, and the pellet was suspended in 500 μl of Propidium Iodide (PI) staining solution (0.1 % (v/v) Triton X-100, 10 μg/ml PI, and 100 μg/ml DNase-free RNaseA in PBS). This suspension was kept in the dark at room temperature for 30 min or at 37 °C for 10 min. The samples were then acquired on a flow cytometer.

HCT116 cells [3] = assay: Cellular apoptosis (Annexin V FITC/PI flow cytometry); format: cell-based; conditions: HCT116, IC50 dose
Description: HCT116 cell lines were seeded, cultured and subjected up to IC-50 dose of compound. Subsequent to treatment, cells underwent two washes with cold PBS. Resuspended cells were placed in 1X binding buffer at a concentration of 1x10^6 cells/ml, and the cells were divided into distinct groups, namely Unstained cells, Control group, Annexin only, PI only, and Treatment. Following the division into labelled tubes, Annexin V FITC and PI were introduced to their respective tubes. After vortexing and an incubation period of 15 min at room temperature, 1X Binding buffer was added to each tube. Subsequently, the samples were analyzed by a Flow Cytometer within 1 h.

HCT116 cells [4] = assay: Mitochondrial membrane potential estimation (JC-1 flow cytometry); format: cell-based; conditions: HCT-116, IC50 dose, 24 h
Description: After the incubation period, the medium was aspirated, and cells were harvested using trypsin EDTA. The harvested cells were collected in a 1.5 ml tube and subjected to a single wash with 500 μl of chilled PBS. Subsequently, the cell pellets were resuspended in 400 μl of JC1 staining buffer containing 2 μM JC-1 dye. The samples were then promptly acquired using a Flow Cytometer within a 1-h timeframe.

HCT116 cells [5] = assay: Wound healing (scratch) assay; format: cell-based; conditions: HCT-116, after 48 h, compared to control
Description: The following day, a scratch was made in the cell monolayer using a 200 μl tip, and the cells were subsequently treated with the specified concentration of the formulation. Photographs were taken at various time intervals ranging from 0 to 48 h.
The gap area resulting from the scratch was analyzed using Image J Software (NCBI) and was further presented in a graphical format to illustrate the changes over time.

erythrocytes = assay: Haemolysis study; format: cell-based, male albino rats; conditions: rat erythrocytes, 100 μg/ml
Description: For […] control identification, Triton X-100 treatment was employed. A 4 mL blood sample was drawn from male albino rats (220g) using a 23-gauge needle from the lateral saphenous vein of the animal (SPTM/2022/IAEC/18). The blood sample was then centrifuged at 1344×g for 10 min, and the plasma layer was carefully removed. The erythrocytes were washed three times with saline water and incubated with a 100 μg/mL concentration of the samples at 37 °C. Samples of 200 μL each were collected at 0, 1–10 h and centrifuged at 1344×g for 10 min.
During the incubation, hemoglobin transformed into oxyhemoglobin. The obtained erythrocytes were observed under a microscope, and absorbance readings were taken at 570 nm for different concentrations of samples. All test samples were analyzed in triplicate, and the results are expressed as mean ± SD (n = 3). The percentage of hemolysis can be calculated using the following equation.

platelets = assay: Platelet aggregation study; format: cell-based, rats; conditions: blood incubated 2 h, Leishman-stained slides
Description: A 1 mL blood sample was collected in heparinized tubes to prevent coagulation. […] The platelet aggregation was then examined both quantitatively and qualitatively. The qualitative analysis was conducted through microscopic examination of stained blood smears. Blood smears were prepared on clean glass slides after the 2-h incubation period. The slides were air-dried and subsequently stained with Leishman's stain for 5 min (Span Diagnostics, India). Following the staining, the slides were rinsed with distilled water, and a cover glass was placed on each slide for visualization under an optical microscope using an immersion objective. Images were captured using a digital camera.
As a control, whole blood incubated with an equivalent volume of PBS was used as the spontaneous control.

[6] = Pharmacokinetics after intravenous administration; format: in vivo, male Albino Wistar rats; conditions: rats, 15 mg/kg intravenously
Description: In accordance with the ethical approval (SPTM/2022/IAEC/18), nine male Albino Wistar rats weighing between 200 and 250 g were divided into three groups (n = 3) for proper conduct of pharmacokinetic experiments.
Blood samples (500 μL) were collected from the rats' tail veins into heparinized tubes and cold centrifuged at 13,500 rpm for 10 min at 4 °C to separate plasma from blood. Subsequently, 100 μL of the separated plasma was mixed with 200 μL of acetonitrile, vortexed for 3 min to extract proteins, and cold centrifuged again at 13,500 rpm for 5 min at 4 °C.
The supernatant was then diluted with methanol, passed through a membrane filter, and subjected to analysis using a High-Performance Liquid Chromatography (HPLC) system. Isocratic elution was performed with a mobile phase consisting of a 20 mM ammonium acetate buffer and acetonitrile in a 60:40 ratio, at a flow rate of 1.0 mL/min, utilizing a C18 column.

Tissue distribution = format: in vivo; conditions: male, albino Wistar, rat, intravenous, 15 mg/kg, rats, 8 h after administration
Description: To assess the distribution and concentration of a medication within the body following delivery, tissue distribution studies were conducted. Twelve male albino Wistar rats were divided into two groups, each comprising six rats, following the approved institutional protocol by the Committee for the Purpose of Control and Supervision of Experiments on Animals (CPCSEA) (Ref. No.: SPTM/2022/IAEC/18).
The medications evaluated for tissue distribution were ENZ and the formulation ENZ-PLGA-PSAR-TPGS NPs. After administering the doses for 8 h, the rats were euthanized. Tissue samples, including liver, heart, kidney, lungs, brain, colon, small intestine, stomach, and rectum muscle tissues, were collected. Brain endothelial cells were obtained using a stereotaxic apparatus (USA, Model No. 51500). The collected tissue samples were homogenized in a cold physiological solution and filtered after rinsing with saline water (0.9 percent sodium chloride).
Subsequently, the samples were analyzed using RP-UHPLC (Dionex Ultimate, 3000) to determine the distribution and concentration of the medications in various tissues.

HT-29 cell line = tested on: HT-29 cell line; set-up: method as in PMID 31149165; conditions: 1000 μg/mL, MTT assay; cited from earlier work
[7] = tested on: castration-resistant prostate cancer (CRPC); conditions: patients with CRPC; cited from earlier work
[8] = cited from earlier work
[9] = male, Albino Wistar, rat, plasma, iv

## CNC(=O)c1ccc(N2C(=S)N(c3ccc(C#N)c(C(F)(F)F)c3)C(=O)C2(C)C)cc1F [ENZ, Enzalutamide]
[1]
  pattern of release: poor
HCT116 cells [2]
  cells in G1 phase: 49.6%
  cells in G2 (G2/M) phase: 14.5%
HCT116 cells [3]
  early apoptosis (lower right quadrant): 2.7%
  late apoptosis (upper right quadrant): 10.1%
  live cells (lower left quadrant): 72.6%
HCT116 cells [4]
  High MMP cells: 3.5%
  live cells in MMP assay: 52.7%
  low MMP cells: 41.7%
HCT116 cells [5]
  inhibition of wound area: inhibited the wound area
erythrocytes
  lysis of RBCs (microscopy): no occurrence of eruption or lysis of the RBCs
platelets
  platelet aggregation: no aggregation
[6]; [9]
  MRT: 5.34 ± 2.43 h
  Vd: 1.4 ± 0.00356 L
  clearance: 1.51 mL/min
[6]
  C: 226.24 ± 31.2 ng/mL
Tissue distribution; brain, read-out: Concentration in Brain
  concentration at 8 h: 0.7 ± 0.1 ng/mL
Tissue distribution; colon, read-out: Concentration in Colon
  concentration at 8 h: 0.95 ± 0.5 ng/mL
Tissue distribution; heart, read-out: Concentration in Heart
  concentration at 8 h: 0.8 ± 1.1 ng/mL
Tissue distribution; kidney, read-out: Concentration in Kidney
  concentration at 8 h: 0.57 ± 0.21 ng/mL
Tissue distribution; liver, read-out: Concentration in Liver
  concentration at 8 h: 1.2 ± 0.13 ng/mL
Tissue distribution; lungs, read-out: Concentration in Lungs
  concentration at 8 h: 0.5 ± 0.102 ng/mL
Tissue distribution; rectum, read-out: Concentration in Rectum
  concentration at 8 h: 3.07 ± 0.4 ng/mL
Tissue distribution; spleen, read-out: Concentration in Spleen
  concentration at 8 h: 0.3 ± 0.1 ng/mL
Tissue distribution; stomach, read-out: Concentration in Stomach
  concentration at 8 h: 0.21 ± 0.12 ng/mL
HT-29 cell line
  cell viability: significant decrease
[7]
  extension of survival: 4.8 months
[8]
  pKa: 4.16
